Reference: ChEMBL document CHEMBL4321810, “Structural Characterization of Agonist Binding to an A3 Adenosine Receptor through Biomolecular Simulations and Mutagenesis Experiments” (J Med Chem, 2019)
Residue numbers refer to the chain shown, from its start. Active and inactive are the calls of the source.

Experiments:
[1] = system: T1, Adenosine receptor A3 (Homo sapiens), P0DMS8 [N250A]
T1 sequence (whole entry): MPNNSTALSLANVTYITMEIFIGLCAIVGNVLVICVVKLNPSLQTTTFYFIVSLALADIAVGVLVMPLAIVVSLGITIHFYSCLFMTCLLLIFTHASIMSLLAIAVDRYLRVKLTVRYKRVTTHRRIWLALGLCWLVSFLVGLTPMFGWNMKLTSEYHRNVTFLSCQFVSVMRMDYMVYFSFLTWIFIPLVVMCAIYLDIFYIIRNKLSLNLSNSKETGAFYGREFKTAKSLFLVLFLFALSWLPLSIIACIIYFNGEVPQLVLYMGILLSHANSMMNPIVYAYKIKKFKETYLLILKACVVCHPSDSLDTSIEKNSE

[2] = system: T2, Adenosine receptor A3 (Homo sapiens), P0DMS8 [F168A]
T2 sequence (whole entry): T1 sequence (whole entry) with F168A, A250N

[3] = system: T3, Adenosine receptor A3 (Homo sapiens), P0DMS8 [L246A]
T3 sequence (whole entry): T1 sequence (whole entry) with L246A, A250N

[4] = system: T4, Adenosine receptor A3 (Homo sapiens), P0DMS8 [I268A]
T4 sequence (whole entry): T1 sequence (whole entry) with A250N, I268A

[5] = system: T5, Adenosine receptor A3 (Homo sapiens), P0DMS8 [H272A]
T5 sequence (whole entry): T1 sequence (whole entry) with A250N, H272A

[6] = system: T6, Adenosine receptor A3 (Homo sapiens), P0DMS8 [S271A]
T6 sequence (whole entry): T1 sequence (whole entry) with A250N, S271A

Measured: pIC50

CCNC(=O)[C@H]1O[C@@H](n2cnc3c(N)ncnc32)[C@H](O)[C@@H]1O
inactive: [1] | [2] | [3] | [4] | Homo sapiens | [5] | [6]

CNC(=O)[C@H]1O[C@@H](n2cnc3c(NCc4cccc(I)c4)ncnc32)[C@H](O)[C@@H]1O
inactive: [1] | [2] | [3] | [4] | Homo sapiens | [5] | [6]
